Values of other authors as cited in paper PMC4484741 (Nuclear medicine and biology, 2011).
Read-outs that look alike come from different tables or passages of the source. One block for each compound: values may come before it.

Legend:
pancreatic BCM = details: rats, PET
GLP-1 receptor = details: read-out: Kd, affinity to GLP-1 receptor

Time within which liver and pancreas uptake rose to a plateau (pancreatic BCM): ≤ 15 min
Compound: COc1cc2c(cc1O[11CH3])CCN1CC(CC(C)C)C(O)CC21 (centres unmarked) [[^11C]DTBZ]

Time within which liver and pancreas uptake rose to a plateau (pancreatic BCM): ≤ 15 min
Compound: COc1cc2c(cc1OCCC[18F])CCN1C[C@@H](CC(C)C)[C@H](O)C[C@H]21 [[^18F]FP-DTBZ]

Compound: Exendin (9-39): truncated version of exendin-4, antagonist of GLP-1 receptor
Kd (GLP-1 receptor): ~3 nM

Compound: Exendin-4: 39-amino acid peptide hormone from Gila monster saliva, agonist of GLP-1 receptor
half-life in vivo: about 2.4 h

Compound: GLP-1: endogenous ligand of the GLP-1 receptor
half-life in vivo (fast degradation by dipeptidyl peptidase-4): 1 to 2 min
